Source: PubChem BioAssay (NCI)
Several values for one entry are separate records, joined by “and”; a condition that tells them apart may be missing. Equal values may be shown once.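 Five concentrations, 48 hours, 96-well plates. GI50 = concentration required for 50% inhibition of growth. TGI: total growth inhibition.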

Assays:
Test in all cases: NCI tumour cell line growth inhibition, 48 h
DU-145 prostate = system: DU-145 prostate
U251 CNS = system: U251 CNS
SK-MEL-28 melanoma = system: SK-MEL-28 melanoma
COLO 205 colon = system: COLO 205 colon
SNB-75 CNS = system: SNB-75 CNS
SN12C renal = system: SN12C renal
RPMI-8226 leukemia = system: RPMI-8226 leukemia
OVCAR-3 ovarian = system: OVCAR-3 ovarian
NCI-H460 lung = system: NCI-H460 lung
KM20L2 colon = system: KM20L2 colon
M19-MEL melanoma = system: M19-MEL melanoma

Row | SMILES | TGI (DU-145 prostate) | TGI (U251 CNS) | TGI (SK-MEL-28 melanoma) | TGI (COLO 205 colon) | TGI (SNB-75 CNS) | TGI (SN12C renal) | TGI (RPMI-8226 leukemia) | TGI (OVCAR-3 ovarian) | TGI (NCI-H460 lung) | GI50 (DU-145 prostate) | GI50 (RPMI-8226 leukemia) | GI50 (SNB-75 CNS) | GI50 (SN12C renal) | GI50 (NCI-H460 lung) | TGI (KM20L2 colon) | TGI (M19-MEL melanoma) | GI50 (SK-MEL-28 melanoma) | GI50 (OVCAR-3 ovarian) | GI50 (U251 CNS) | GI50 (COLO 205 colon)
1 | Cc1ccc2c3c1[C@@H]1O[C@@H]1c1cccc(c1-3)[C@@H]1O[C@H]21 | 22.9 µM | 28.9 µM | 23.5 µM | 33.9 µM | 15.7 µM | 25.5 µM |  |  |  |  |  |  |  |  |  |  |  |  |  | 
2 | O=c1[nH]c2cc([N+](=O)[O-])c(N/N=C/c3ccc(Cl)cc3Cl)c([N+](=O)[O-])c2[nH]1 | > 100 µM | > 100 µM | > 100 µM | > 100 µM | > 100 µM | > 100 µM | > 100 µM | 35.3 µM | > 100 µM |  |  |  |  |  |  |  |  |  |  | 
3 | O=c1[nH]c(=O)n(CCOc2ccc(Cl)cc2)cc1Nc1ccccc1 | > 100 µM | > 100 µM | > 100 µM | > 100 µM |  | > 100 µM | > 100 µM | > 100 µM | > 100 µM |  |  |  |  |  |  |  |  |  |  | 
4 | C=C1CC2C3C=C(C)C4=CC(=O)CC[C@]4(C)C3CC[C@]2(C)[C@@]1(OC(C)=O)C(C)=O (stereo not given in full) | > 100 µM |  |  |  | > 100 µM | > 100 µM | 5.6 µM |  | > 100 µM | > 100 µM | 1.25 µM | 8.76 µM | 1.16 µM | 3.69 µM |  |  |  |  |  | 
5 | COc1ccc(N=Cc2ccc(N(CCC#N)S(=O)(=O)c3ccccc3)cc2C)cc1 |  | > 100 µM | > 100 µM | 96.3 µM | > 100 µM | > 100 µM | > 100 µM | > 100 µM | > 100 µM |  |  |  |  |  | > 100 µM | > 100 µM |  |  |  | 
6 | NC(=O)CCSC(CC(=O)c1ccc(Cl)cc1)c1ccc(Cl)cc1 (stereo not given) | 85.4 µM | 34.5 µM | > 100 µM | > 100 µM | 90.7 µM | 83.2 µM | 5.71 µM | 40.6 µM | > 100 µM |  |  |  |  |  |  |  |  |  |  | 
7 | CCOC(=O)C12CC(C)=C(C)CC1CCCc1ccccc12 (stereo not given) | > 100 µM | 39.6 µM | 92.7 µM | 33.9 µM | 71.1 µM | 58.3 µM | 34.2 µM | 42.6 µM | 32.7 µM |  |  |  |  |  |  |  |  |  |  | 
8 | O=CN1CCC23CC(O)CCC2C1Cc1cc(Oc2nnnn2-c2ccccc2)cc(O)c13 (stereo not given) | > 100 µM | > 100 µM | > 100 µM | > 100 µM | > 100 µM | > 100 µM | > 100 µM | > 100 µM | > 100 µM |  |  |  |  |  |  |  |  |  |  | 
9 | C[C@H]1CCC/C=C/[C@@H]2C[C@H](O)C[C@H]2[C@H](O)/C=C/C(=O)O1 |  | > 100 µM |  | < 0.01 µM and 0.0354 µM |  | 3.95 µM and 0.491 µM |  |  |  | 0.0785 µM and 0.218 µM and 0.248 µM | 0.0345 µM and 0.0737 µM and 0.11 µM | 0.0185 µM | 0.0294 µM and 0.0846 µM and 0.0485 µM | 0.036 µM and 0.0837 µM and 0.0828 µM | 0.0368 µM and 0.0279 µM | 0.00129 µM | 0.0292 µM | 0.0382 µM |  | 
10 | CCC1CCC2c3c([nH]c4ccc(C)cc34)C3C(=O)N(N(C)C)C(=O)C3C2C1 (stereo not given) | > 100 µM | > 100 µM | > 100 µM | > 100 µM |  | > 100 µM | > 88.3 µM | 2.98 µM | > 68 µM |  |  |  |  |  |  |  |  |  |  | 
11 | CCOC(=O)/C(=C\NC(C)(C)CO)c1nc2ccccc2[nH]1 | > 100 µM |  | > 100 µM | > 100 µM | > 100 µM | > 100 µM | > 100 µM | > 100 µM | > 100 µM |  |  |  |  |  |  |  |  |  |  | 
12 | CCCC[C@H]1C(=O)O[C@H](C)[C@H](NC(=O)c2cccc(NC=O)c2OC)C(=O)O[C@@H](C)[C@@H]1OC(=O)CC(C)C (tested in a mixture with another compound) | 55.7 µM | 18.9 µM | 52.8 µM | 27.1 µM | 17.9 µM | 44.2 µM | 28.2 µM | 27.7 µM | 21.4 µM |  |  |  |  |  |  |  |  |  |  | 
13 | O=c1[nH]c(=O)n(CCOCP(=O)(O)O)nc1Br | > 100 µM | > 100 µM | > 100 µM | > 100 µM | > 100 µM | > 100 µM | > 100 µM | > 100 µM | > 100 µM |  |  |  |  |  |  |  |  |  |  | 
14 | N=C(N)c1ccc(N=Nc2c(O)ccc3cc4c(N=Nc5ccc(C(=N)N)cc5)c(O)ccc4cc23)cc1 | > 100 µM | > 100 µM | > 100 µM | > 100 µM | > 100 µM | > 100 µM | > 100 µM | > 100 µM | > 100 µM |  |  |  |  |  |  |  |  |  |  | 
15 | C/C(=C\C(=N\NC(=N)N)c1ccccc1)c1ccccc1 | 9.49 µM | 2.04 µM | 8.86 µM | 0.284 µM | 17.3 µM | 3.09 µM | 8.41 µM | 1.03 µM | 11.1 µM |  |  |  |  |  |  |  |  |  |  | 
16 | Cc1cn(Cc2cn(CC3OC(n4cc(C)c(=O)[nH]c4=O)CC3O)nn2)c(=O)[nH]c1=O (stereo not given) | > 100 µM | > 100 µM | > 100 µM | > 100 µM | > 100 µM | > 100 µM | > 100 µM | > 100 µM |  |  |  |  |  |  |  |  |  |  |  | 
17 | COc1cccc(NC(=O)CC(=O)NN2C(=O)/C(=C/c3ccc(N(CCC#N)CCC#N)cc3)N=C2c2cc([N+](=O)[O-])ccc2Cl)c1 |  | > 100 µM | > 100 µM | > 100 µM |  | > 100 µM | > 100 µM | > 100 µM |  |  |  |  |  |  | > 100 µM | > 100 µM |  |  |  | 
18 | C=C1c2nc3ccccc3n2C=C(c2ccc(Cl)cc2)N1c1ccc(OCCN2CCCCC2)cc1 | > 100 µM | > 100 µM | > 100 µM | > 100 µM |  | > 45 µM | 45 µM | > 45 µM | 45 µM and > 100 µM | > 100 µM |  |  |  | 1.2 µM |  |  | 32.8 µM |  | 3.75 µM | > 100 µM
19 | N#Cc1c(-c2ccc(Cl)cc2)c2c([nH]c1=O)-c1cc([N+](=O)[O-])ccc1CCC2 | > 100 µM | 41.6 µM | 63.6 µM | 49.7 µM | 78.3 µM | 34.7 µM | > 100 µM | 31.8 µM | 42.5 µM |  |  |  |  |  |  |  |  |  |  | 
20 | O=C1[C@@H](O)[C@@H]2CCCC[C@@]23CCCN13 | > 100 µM | > 100 µM | > 100 µM | > 100 µM | > 100 µM | > 100 µM | > 100 µM |  | > 100 µM |  |  |  |  |  |  |  |  |  |  | 
